Measurements reported in patent publication US9789153B2, “Composition for preventing cancer and treating cancer and intensifying the effects of other anticancer drugs” (priority 2014, dated 2017).

System: Cancer cells
Assay: MTT assay-A positive control group
Assay type: cell-based
Conditions: Triton X100 1%, positive control C2
Protocol: MTT (3-(4,5 dimethylthiazole-2-yl)-2,5-diphenyl tetrazolium bromide) is a proven cell viability indicator and this yellow colored tetrazolium salt gets reduced to purple colored formazan crystals by mitochondrial reductase enzyme seen only in metabolically active cells. It measures the cell proliferation rate and the reduction in cell viability when metabolic events lead to apoptosis or necrosis. Triplicate samples were analyzed and cell viability was calculated in percentage with respect to negative control group as follows Cell viability (%)=(Nt/Nc)×100 Nt is the absorbance of cells treated with sample and Nc is the absorbance of untreated cells (negative control group-Cell culture medium alone). The cell survival rate of negative control group is 100%. The results of MTT assays are shown in Figures, Wherein, the horizontal axis represents concentration of test sample and the vertical axis represents the cell survival rate. […]
Cancer cells were incubated for 2 days. […] Optical density of the solution was measured at a wavelength of 570 nm using a Beckmann Coulter Elisa plate reader (BioTek Power Wave XS). […]

Triton X100
cells killed: more than 90%
